Data reported in patent publication US11408885B2, “Compositions and multiplex assays for characterizing active proteases and their inhibitors” (Massachusetts Institute of Technology, priority 2017, dated 2022).

Experiments:
[1] = tested on: panel of MMPs (MMP1, MMP2, MMP3, MMP7, MMP9, MMP12); assay: Competitive-MAMBI: loss of HxBP-Bt probe labeling with competitive inhibitor; format: binding, human; conditions: recombinant MMPs and menstrual effluent; inhibitor 0.17-7.5 μM, HxBP-Bt 0.5 μM
[2] = target: T1, MMP7 (Homo sapiens, UniProt P09237); conditions: literature; cited from earlier work
T1 sequence (P09237 95-267): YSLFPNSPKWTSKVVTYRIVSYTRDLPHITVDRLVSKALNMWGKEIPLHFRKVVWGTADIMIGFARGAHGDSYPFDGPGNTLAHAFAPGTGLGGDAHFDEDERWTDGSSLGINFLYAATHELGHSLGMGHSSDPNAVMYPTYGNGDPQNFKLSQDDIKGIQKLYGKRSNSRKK

[3] = target: MMP12 (Homo sapiens, UniProt P39900); conditions: literature; cited from earlier work
Sequence of MMP12 (P39900 106-470, species assumed): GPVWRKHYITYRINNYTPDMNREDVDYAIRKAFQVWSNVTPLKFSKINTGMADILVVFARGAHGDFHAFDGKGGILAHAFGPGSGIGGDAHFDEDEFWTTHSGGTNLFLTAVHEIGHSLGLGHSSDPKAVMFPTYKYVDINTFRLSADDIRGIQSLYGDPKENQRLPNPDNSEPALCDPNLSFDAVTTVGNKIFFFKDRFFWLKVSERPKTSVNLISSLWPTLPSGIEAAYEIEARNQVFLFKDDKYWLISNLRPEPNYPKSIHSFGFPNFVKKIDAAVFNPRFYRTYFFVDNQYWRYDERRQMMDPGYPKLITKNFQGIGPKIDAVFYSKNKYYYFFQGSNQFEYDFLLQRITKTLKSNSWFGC

[4] = target: T2, MMP3 (Homo sapiens, UniProt P08254); assay: Competitive-MAMBI: loss of HxBP-Bt probe labeling with competitive inhibitor; format: binding; set-up: purchased Peprotech; conditions: recombinant and menstrual effluent, inhibitor 0.17-7.5 μM, HxBP-Bt 0.5 μM
Procedure: (§1) The MAMBI platform was utilized for characterization of inhibitors, in which the HxBP-Bt probe binding to active metalloproteinase was assayed in the presence of small molecule metalloproteases inhibitors. The relative inhibitor potencies were quantified by the loss of labeling by activity-based probe of a target protease with the addition of a competitive inhibitor. Selectivity was additionally estimated by monitoring relative potencies across an enzyme superfamily.
(§2) The relative inhibition by 10 commercially available inhibitors was characterized in a mixture of six recombinant MMPs, as well as in menstrual serum effluent.
(§3) Protease labeling was reported as a fraction of MAMBI signal without competitive inhibition.
Target sequence in this assay (P08254 100-477): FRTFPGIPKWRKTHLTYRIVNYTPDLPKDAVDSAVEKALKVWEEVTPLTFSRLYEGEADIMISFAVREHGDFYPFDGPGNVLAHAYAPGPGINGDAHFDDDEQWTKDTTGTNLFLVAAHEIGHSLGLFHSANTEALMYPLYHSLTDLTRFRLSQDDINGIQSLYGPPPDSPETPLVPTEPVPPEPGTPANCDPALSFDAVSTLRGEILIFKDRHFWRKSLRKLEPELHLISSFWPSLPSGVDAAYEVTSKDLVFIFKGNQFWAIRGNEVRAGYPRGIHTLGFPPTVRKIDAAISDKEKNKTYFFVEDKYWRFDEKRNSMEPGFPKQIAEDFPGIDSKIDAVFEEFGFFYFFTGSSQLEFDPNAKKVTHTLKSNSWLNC

[5] = target: T3, MMP9 (Homo sapiens, UniProt P14780); conditions: literature; cited from earlier work
Target sequence in this assay (P14780 94-707, species assumed): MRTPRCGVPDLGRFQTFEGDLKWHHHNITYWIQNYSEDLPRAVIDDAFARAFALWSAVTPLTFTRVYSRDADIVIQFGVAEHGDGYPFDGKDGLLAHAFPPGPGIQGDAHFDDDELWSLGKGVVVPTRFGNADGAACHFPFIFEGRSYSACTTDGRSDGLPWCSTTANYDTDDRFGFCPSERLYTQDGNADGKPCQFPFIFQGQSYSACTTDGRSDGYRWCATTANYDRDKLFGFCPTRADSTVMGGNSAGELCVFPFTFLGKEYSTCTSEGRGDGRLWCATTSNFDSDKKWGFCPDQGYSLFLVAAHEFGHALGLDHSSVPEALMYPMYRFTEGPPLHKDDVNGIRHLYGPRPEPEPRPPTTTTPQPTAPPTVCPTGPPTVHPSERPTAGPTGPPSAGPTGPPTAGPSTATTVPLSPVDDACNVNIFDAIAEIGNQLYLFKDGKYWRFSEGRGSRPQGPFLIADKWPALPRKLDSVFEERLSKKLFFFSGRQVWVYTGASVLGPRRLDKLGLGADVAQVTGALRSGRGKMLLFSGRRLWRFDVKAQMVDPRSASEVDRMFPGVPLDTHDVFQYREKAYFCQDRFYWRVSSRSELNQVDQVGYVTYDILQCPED

[6] = target: T2, MMP3; conditions: literature; cited from earlier work
Target sequence in this assay (P08254 100-477, species assumed): as the sequence (P08254 100-477) above

[7] = tested on: active recombinant MMPs; conditions: single recombinant MMPs, 500 nM HxBP-Bt
Procedure: A single active recombinant MMP (5 nM by mass, 5 μL total vol) was incubated with HxBP-Bt (30 min at 37° C., 500 nM final HxBP-Bt concentration) under reversible binding conditions. Tested MMPs included MMP1, MMP2, MMP3, MMP7, MMP8, MMP9, MMP10, MMP12, and MMP13. Each containing biotin-labeled MMP (MMP reversibly bound to HxBP-Bt) was then incubated with a cocktail of MMP capture beads (60 minutes, RT, 25 μL total vol).
A cocktail of MMP capture beads diluted in Microparticle Diluent 3 (R&D systems; PN 895857) (17.5 μL bead suspension) was added to the HxBP-Bt-labeled sample (7.5 μL) in a 384-well plate (60 minutes, with rotary agitation, room temperature). Samples were washed 3 times with PBS 0.1% TWEEN®-20 (300 μl each wash) using the Magnetic BioTek plate washer (405 Select TS), incubated with Streptavidin-R-Phycoerythrin (10 μg/mL) diluted in diluted wash buffer concentrate (R&D systems; PN 895003) (15 minutes, with rotary agitation, room temperature), and again washed 3 times by plate washer. Samples were immediately characterized using the FLEXMAP 3D system (Luminex).

[8] = target: T4, MMP2 (Homo sapiens, UniProt P08253); assay: Competitive-MAMBI: loss of HxBP-Bt probe labeling with competitive inhibitor; format: binding; set-up: purchased Peprotech; conditions: inhibitor 0.17-7.5 μM, HxBP-Bt 0.5 μM
T4 sequence (P08253 110-660): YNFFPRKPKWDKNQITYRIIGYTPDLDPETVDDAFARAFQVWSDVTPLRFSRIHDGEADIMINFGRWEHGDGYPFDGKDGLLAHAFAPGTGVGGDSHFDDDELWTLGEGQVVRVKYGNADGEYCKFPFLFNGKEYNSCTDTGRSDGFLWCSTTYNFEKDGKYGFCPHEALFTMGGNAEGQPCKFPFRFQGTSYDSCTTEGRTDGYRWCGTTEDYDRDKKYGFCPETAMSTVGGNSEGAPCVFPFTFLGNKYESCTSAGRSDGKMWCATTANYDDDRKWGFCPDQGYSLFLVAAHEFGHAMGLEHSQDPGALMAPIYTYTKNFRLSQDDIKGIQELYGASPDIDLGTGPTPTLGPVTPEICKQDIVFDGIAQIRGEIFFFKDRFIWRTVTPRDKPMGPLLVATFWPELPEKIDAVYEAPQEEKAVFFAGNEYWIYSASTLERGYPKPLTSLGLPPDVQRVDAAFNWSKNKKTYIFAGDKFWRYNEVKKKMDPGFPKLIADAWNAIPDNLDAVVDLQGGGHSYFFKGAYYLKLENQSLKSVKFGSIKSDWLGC

[9] = target: T3, MMP9; assay: as above; format: binding; set-up: The recombinant catalytic domains of human MMPs 7 and 9 were purchased from Enzo Life Sciences, and of MMP 12 from Anaspec; purchased Enzo Life Sciences; conditions: MMP9 (gelatinase); inhibitor 0.17-7.5 μM, HxBP-Bt 0.5 μM
Procedure: as §1, §2, §3
Target sequence in this assay (P14780 107-449 limits assumed): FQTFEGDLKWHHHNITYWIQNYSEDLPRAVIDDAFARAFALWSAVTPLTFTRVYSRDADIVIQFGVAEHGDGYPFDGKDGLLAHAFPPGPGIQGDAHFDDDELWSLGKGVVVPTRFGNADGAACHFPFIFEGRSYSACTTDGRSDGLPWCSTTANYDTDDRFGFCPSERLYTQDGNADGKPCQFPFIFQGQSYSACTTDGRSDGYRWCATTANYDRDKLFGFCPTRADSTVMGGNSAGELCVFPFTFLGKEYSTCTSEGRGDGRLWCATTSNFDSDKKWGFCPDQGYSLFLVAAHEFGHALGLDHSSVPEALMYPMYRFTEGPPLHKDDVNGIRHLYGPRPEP

[10] = target: T4, MMP2; conditions: literature; cited from earlier work
[11] = target: T1, MMP7; assay: Competitive-MAMBI: loss of HxBP-Bt probe labeling with competitive inhibitor; format: binding; set-up: The recombinant catalytic domains of human MMPs 7 and 9 were purchased from Enzo Life Sciences, and of MMP 12 from Anaspec; purchased Enzo Life Sciences; conditions: recombinant and effluent derived samples, inhibitor 0.17-7.5 μM, HxBP-Bt 0.5 μM
Procedure: as §1, §2, §3

[12] = target: T5, MMP1 (Homo sapiens, UniProt P03956); assay: as above; format: binding; set-up: purchased Peprotech; conditions: recombinant and effluent derived samples, inhibitor 0.17-7.5 μM, HxBP-Bt 0.5 μM
T5 sequence (P03956 100-469): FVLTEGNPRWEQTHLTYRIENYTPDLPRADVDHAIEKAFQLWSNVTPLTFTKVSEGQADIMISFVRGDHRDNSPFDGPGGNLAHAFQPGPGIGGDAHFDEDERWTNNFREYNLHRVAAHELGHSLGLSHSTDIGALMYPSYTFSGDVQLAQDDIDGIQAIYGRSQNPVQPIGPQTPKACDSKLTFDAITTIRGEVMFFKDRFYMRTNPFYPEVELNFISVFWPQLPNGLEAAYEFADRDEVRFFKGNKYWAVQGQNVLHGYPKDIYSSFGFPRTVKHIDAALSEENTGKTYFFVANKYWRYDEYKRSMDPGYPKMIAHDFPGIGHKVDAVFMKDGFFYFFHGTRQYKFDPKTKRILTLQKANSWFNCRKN

With CNC(=O)[C@@H](NC(=O)[C@H](CC(C)C)[C@H](O)C(=O)NO)C(C)(C)C [Marimastat] the “inhibitory activity (loss of probe labeling)” value [1] was “inhibitory activity toward every protease tested”.

In the case of COC[C@H](NC(=O)[C@H](NC(=O)[C@@H](CCCc1ccc(-c2ccccc2)c(C)c1)CC(=O)O)C(C)(C)C)c1ccccc1 [UK 370106], the IC50 [2] is given as 5800 nM, the IC50 [3] is given as 42 nM and the “inhibitory activity (loss of probe labeling)” value [4] is given as “expected inhibition of MMP3”. The IC50 [5] was 30400 nM and the IC50 [6] was 23 nM.

For O=C(O)CN(CCN(CC(=O)O)CC(=O)O)CC(=O)O [EDTA, Ethylenediaminetetraacetic acid], the “effect on HxBP-Bt binding (MAMBI signal)” value [7] was “completely eliminated HxBP-Bt binding”.

In the case of CC(C)ON([C@@H](C(=O)NO)C(C)C)S(=O)(=O)c1ccc(-c2ccccc2)cc1 [ARP 101], the “inhibitory activity (loss of probe labeling)” value [8] is reported as “increased potency” and the “inhibitory activity (loss of probe labeling)” value [4] is reported as “increased potency”.

In the case of CNC(=O)[C@H](Cc1ccccc1)NC(=O)[C@H](CC(C)C)[C@H](CSc1cccs1)C(=O)NO [Batimastat], the IC50 [2] is listed as 6 nM, the “inhibitory activity (loss of probe labeling)” value [4] is listed as “stronger inhibitory activity against MMP3 compared with Marimastat” and the IC50 [5] is listed as 1 nM. For the same compound, the “inhibitory activity (loss of probe labeling)” value [1] was “inhibitory activity toward every protease tested”.

In the case of O=P(O)(O)C(NS(=O)(=O)c1ccc(-c2ccc(Cl)cc2)cc1)P(=O)(O)O [MMP inhibitor 2, MMP Inhibitor 2 IV], the “inhibitory activity (loss of probe labeling)” value [8] is given as “did not prevent the binding of HxBP-Bt”, the “inhibitory activity (loss of probe labeling)” value [9] is given as “did not prevent the binding of HxBP-Bt” and the IC50 [5] is given as over 1000 nM.

With O=S(=O)(CC1CS1)c1ccc(Oc2ccccc2)cc1 (stereo not shown) [SB 3CT, SB-3CT] the “inhibitory activity (loss of probe labeling)” value [9] was “did not prevent the binding of HxBP-Bt”.

In the case of O=C(O)C[C@@H](NC(=O)c1cc(-c2ccc(-c3ccncc3)cc2)cs1)c1ccccc1 [PF 356231], the IC50 [2] is listed as 96000 nM and the IC50 [10] is listed as over 100 nM.

In the case of N#Cc1ccc(-c2ccc(OCCC(=O)NO)cc2)cc1 [MMP Inhib 3 VII, MMP3 Inhibitor VII], the “inhibitory activity (loss of probe labeling)” value [4] is reported as “expected inhibition of MMP3”.

In the case of CN1C(=O)N(CC(C(=O)NO)[C@H](CC2CCCC2)C(=O)N2CCCCC2)C(=O)C1(C)C (stereo partly shown) [Ro32-3555, Ro 32-3555 (Trocade)], the Ki [2] is listed as 42 nM, the “inhibitory activity (loss of probe labeling)” value [11] is listed as “significant potency” and the Ki [5] is listed as 95 nM. The Ki [10] was 154 nM and the “inhibitory activity (loss of probe labeling)” value [12] was “significant potency”.
